Measured values: US5378836A, “Rapamycin oximes and hydrazones” (American Home Products Corporation, priority 1993, dated 1995)
Counter-ions that a name gives are not always drawn. Like-named read-outs stand apart in the source and are kept apart here.

Tests used:
[1] = system: pinch skin graft from male BAB/c donors transplanted to male C3 H(H-2K) recipients; experiment: survival time of a pinch skin graft; format: in vivo, male C3 H(H-2K) recipients (mouse strain); conditions: dose of 4 mg/kg, intraperitoneally or orally; untreated control usually rejected within 6-7 days
Protocol: (§1) Immunosuppressive activity for representative compounds of this invention was evaluated in an in vitro standard pharmacological test procedure to measure lymphocyte proliferation (LAF) and in an in vivo standard pharmacological test procedure which evaluated the survival time of a pinch skin graft.
Representative compounds of this invention were also evaluated in an in vivo test procedure designed to determine the survival time of pinch skin graft from male BAB/c donors transplanted to male C3 H(H-2K) recipients. The method is adapted from Billingham R. E. and Medawar P. B., J. Exp. Biol. 28:385-402, (1951). Briefly, a pinch skin graft from the donor was grafted on the dorsum of the recipient as a allograft, and an isograft was used as control in the same region. The recipients were treated with either varying concentrations of test compounds intraperitoneally or orally. Rapamycin was used as a test control. Untreated recipients serve as rejection control. The graft was monitored daily and observations were recorded until the graft became dry and formed a blackened scab. This was considered as the rejection day. The mean graft survival time (number of days±S.D.) of the drug treatment group was compared with the control group. […] Results are expressed as the mean survival time in days. Untreated (control) pinch skin grafts are usually rejected within 6-7 days. The results shown in Table 1 are based on a dose of 4 mg/kg of test compound. A survival time of 12.0±1.7 days was obtained for rapamycin at 4 mg/kg.

[2] = system: thymocytes (T-cell proliferation); experiment: comitogen-induced thymocyte proliferation procedure (LAF); format: cell-based, BALB/c mice; conditions: Mus musculus; for inhibition at 0.1 µM: T-cell, read-out: LAF % Inhib. (percent inhibition of T-cell proliferation); for IC50: Thymocyte, read-out: LAF IC50
Protocol: as §1
The comitogen-induced thymocyte proliferation procedure (LAF) was used as an in vitro measure of the immunosuppressive effects of representative compounds. Briefly, cells from the thymus of normal BALB/c mice are cultured for 72 hours with PHA and IL-1 and pulsed with tritiated thymidine during the last six hours. Cells are cultured with and without various concentrations of rapamycin, cyclosporin A, or test compound. Cells are harvested and incorporated radioactivity is determined. Inhibition of lymphoproliferation is assessed as percent change in counts per minute from non-drug treated controls. For each compound evaluated, rapamycin was also evaluated for the purpose of comparison. An IC50 was obtained for each test compound as well as for rapamycin.

Candida albicans = conditions: both in vitro and in vivo; cited from earlier work
[3] = alone or in combination with picibanil; cited from earlier work
[4] = system: experimental allergic encephalomyelitis model; conditions: a model for multiple sclerosis; cited from earlier work
IgE-like antibodies = conditions: in vivo; cited from earlier work
[5] = thymus cells cultured 72 h with PHA and IL-1, tritiated thymidine during last six hours

Compound | Skin Graft mean survival time (days ± SD) [1] [days] | inhibition at 0.1 µM [2] [%] | IC50 [2, 5] [nM] | other results
CO[C@H]1C[C@@H]2CC[C@@H](C)[C@@](O)(O2)C(=O)C(=O)N2CCCC[C@H]2C(=O)O[C@H]([C@H](C)C[C@@H]2CC[C@@H](OC(=O)NCCc3ccccn3)[C@H](OC)C2)CC(=NO)[C@H](C)/C=C(\C)[C@@H](O)[C@@H](OC)C(=O)[C@H](C)C[C@H](C)/C=C/C=C/C=C/1C [Example 2, Rapamycin 27-oxime, 42-ester with 2-(pyridin-2-yl)-ethyl-carbamic acid] | 8.0 ± 0.6 | 94 | 0.6 | –
CO[C@H]1C[C@@H]2CC[C@@H](C)[C@@](O)(O2)C(=O)C(=O)N2CCCC[C@H]2C(=O)O[C@H]([C@H](C)C[C@@H]2CC[C@@H](OC(=O)NCCO)[C@H](OC)C2)CC(=NO)[C@H](C)/C=C(\C)[C@@H](O)[C@@H](OC)C(=O)[C@H](C)C[C@H](C)/C=C/C=C/C=C/1C [Example 4, Rapamycin 27-oxime, 42-ester with 2-hydroxyethyl carbamic acid] | – | 89 | 17.8 | –
CO[C@H]1C[C@@H]2CC[C@@H](C)[C@@](O)(O2)C(=O)C(=O)N2CCCC[C@H]2C(=O)O[C@H]([C@H](C)C[C@@H]2CC[C@@H](OS(=O)(=O)O)[C@H](OC)C2)CC(=NO)[C@H](C)/C=C(\C)[C@@H](O)[C@@H](OC)C(=O)[C@H](C)C[C@H](C)/C=C/C=C/C=C/1C [Example 6, Rapamycin 27-oxime, 42-sulfate ester pyridine salt] | 9.8 ± 0.4 | 71 | – | –
CO[C@H]1C[C@@H]2CC[C@@H](C)[C@@](O)(O2)C(=O)C(=O)N2CCCC[C@H]2C(=O)O[C@H]([C@H](C)C[C@@H]2CC[C@@H](OC(N)=O)[C@H](OC)C2)CC(=NO)[C@H](C)/C=C(\C)[C@@H](O)[C@@H](OC)C(=O)[C@H](C)C[C@H](C)/C=C/C=C/C=C/1C [Example 8, Rapamycin 27-oxime, 42-ester with carbamic acid] | 7.0 ± 0.0 | 87 | 13.9 | –
CO[C@H]1C[C@@H]2CC[C@@H](C)[C@@](O)(O2)C(=O)C(=O)N2CCCC[C@H]2C(=O)O[C@H]([C@H](C)C[C@@H]2CC[C@@H](OS(=O)(=O)c3cccc4cccnc34)[C@H](OC)C2)CC(=NO)[C@H](C)/C=C(\C)[C@@H](O)[C@@H](OC)C(=O)[C@H](C)C[C@H](C)/C=C/C=C/C=C/1C [Example 10, Rapamycin 27-oxime, 42-ester with 8-quinolinesulfonic acid] | – | 20 | 300 | –
CO/N=C1\C[C@@H]([C@H](C)C[C@@H]2CC[C@@H](OS(=O)(=O)c3cccc4cccnc34)[C@H](OC)C2)OC(=O)[C@@H]2CCCCN2C(=O)C(=O)[C@]2(O)O[C@@H](CC[C@H]2C)C[C@H](OC)/C(C)=C/C=C/C=C/[C@@H](C)C[C@@H](C)C(=O)[C@H](OC)[C@H](O)/C(C)=C/[C@H]1C [Example 11, Rapamycin (E)-27-O-(methyl)oxime, 42-ester with 8-quinolinesulfonic acid] | – | 17 | 255 | –
CO/N=C1/C[C@@H]([C@H](C)C[C@@H]2CC[C@@H](OS(=O)(=O)c3cccc4cccnc34)[C@H](OC)C2)OC(=O)[C@@H]2CCCCN2C(=O)C(=O)[C@]2(O)O[C@@H](CC[C@H]2C)C[C@H](OC)/C(C)=C/C=C/C=C/[C@@H](C)C[C@@H](C)C(=O)[C@H](OC)[C@H](O)/C(C)=C/[C@H]1C [Example 12, Rapamycin (Z)-27-O-(methyl)oxime, 42-ester with 8-quinolinesulfonic acid] | – | 30 | 210 | –
CO/N=C1/C[C@@H]([C@H](C)C[C@@H]2CC[C@@H](OC(=O)Nc3ccc([N+](=O)[O-])cc3)[C@H](OC)C2)OC(=O)[C@@H]2CCCCN2C(=O)C(=O)[C@]2(O)O[C@@H](CC[C@H]2C)C[C@H](OC)/C(C)=C/C=C/C=C/[C@@H](C)C[C@@H](C)C(=O)[C@H](OC)[C@H](O)/C(C)=C/[C@H]1C [Example 13, Rapamycin (Z)-27-O-(methyl)oxime, 42-ester with 4-nitrophenylcarbamic acid] | – | 14 | 580 | –
CO/N=C1/C[C@@H]([C@H](C)C[C@@H]2CC[C@@H](OS(=O)(=O)c3ccc(C)cc3)[C@H](OC)C2)OC(=O)[C@@H]2CCCCN2C(=O)C(=O)[C@]2(O)O[C@@H](CC[C@H]2C)C[C@H](OC)/C(C)=C/C=C/C=C/[C@@H](C)C[C@@H](C)C(=O)[C@H](OC)[C@H](O)/C(C)=C/[C@H]1C [Example 14, Rapamycin (Z)-27-O-(methyl)oxime, 42-ester with 4-methylbenzenesulfonic acid] | – | 20 | > 1000 | –
CCOC(C)O[C@@H]1CC[C@@H](C[C@@H](C)[C@@H]2C/C(=N/OC)[C@H](C)/C=C(\C)[C@@H](O)[C@@H](OC)C(=O)[C@H](C)C[C@H](C)/C=C/C=C/C=C(\C)[C@@H](OC)C[C@@H]3CC[C@@H](C)[C@@](O)(O3)C(=O)C(=O)N3CCCC[C@H]3C(=O)O2)C[C@H]1OC (stereo partly drawn) [Example 16, 42-O-(1-Ethoxy-ethyl)-rapamycin-(Z)-27-O-(methyl)oxime] | – | 47 | 100 | –
CCOC(C)O[C@@H]1CC[C@@H](C[C@@H](C)[C@@H]2C/C(=N\OC)[C@H](C)/C=C(\C)[C@@H](O)[C@@H](OC)C(=O)[C@H](C)C[C@H](C)/C=C/C=C/C=C(\C)[C@@H](OC)C[C@@H]3CC[C@@H](C)[C@@](O)(O3)C(=O)C(=O)N3CCCC[C@H]3C(=O)O2)C[C@H]1OC (stereo partly drawn) [Example 17, 42-O-(1-Ethoxy-ethyl)-rapamycin-(E)-27-O-(methyl)oxime] | 7.8 ± 0.4 | 73 | 30 | –
CCCCNC(=O)O[C@@H]1CC[C@@H](C[C@@H](C)[C@@H]2C/C(=N/OC)[C@H](C)/C=C(\C)[C@@H](O)[C@@H](OC)C(=O)[C@H](C)C[C@H](C)/C=C/C=C/C=C(\C)[C@@H](OC)C[C@@H]3CC[C@@H](C)[C@@](O)(O3)C(=O)C(=O)N3CCCC[C@H]3C(=O)O2)C[C@H]1OC [Example 18, Rapamycin (Z)-27-O-(methyl)oxime-42-ester with butylcarbamic acid] | – | 18 | 279 | –
CO[C@H]1C[C@@H]2CC[C@@H](C)[C@@](O)(O2)C(=O)C(=O)N2CCCC[C@H]2C(=O)O[C@H]([C@H](C)C[C@@H]2CC[C@@H](O)[C@H](OC)C2)CC(=O)[C@H](C)/C=C(\C)[C@@H](O)[C@@H](OC)C(=O)[C@H](C)C[C@H](C)/C=C/C=C/C=C/1C [rapamycin] | 12.0 ± 1.7 | – | – | antifungal activity, particularly against Candida albicans (Candida albicans): found to have antifungal activity, particularly against Candida albicans, both in vitro and in vivo; antitumor activity [3]: has been shown to have antitumor activity; IC50 [2]: 0.4 to 9.8 nM; effect in the experimental allergic encephalomyelitis model [4]: effective in the experimental allergic encephalomyelitis model; inhibition of the formation of IgE-like antibodies (IgE-like antibodies): effectively inhibited the formation of IgE-like antibodies
